# According to US6737383B1, “Herbicidal oxadiazolidines” (priority 1999, dated 2004):
# How the values were obtained:
# [1] = system: rape; assay: Test B pre/postemergence rape; assay type: in vivo, Brassica napus
# In short: (§1)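 Test chemicals in a non-phytotoxic solvent mixture with surfactant were sprayed preemergence onto planted seeds and postemergence onto plants 2 to 18 cm tall (1- to 4-leaf stage). After twelve to sixteen days in a greenhouse, injury was visually rated against untreated controls from 0 (no effect) to 10 (complete control).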
# [2] = system: morningglory; assay: Test B pre/postemergence morningglory; assay type: in vivo, Ipomoea hederacea
# In short: as §1
# [3] = system: surinam grass; assay: Test B pre/postemergence surinam grass; assay type: in vivo, Brachiaria decumbens
# In short: as §1
# [4] = system: blackgrass; assay: Test B pre/postemergence blackgrass; assay type: in vivo, Alopecurus myosuroides
# In short: as §1
# [5] = system: sugar beet; assay: Test B pre/postemergence sugar beet; assay type: in vivo, Beta vulgaris; conditions: Preemergence
# In short: as §1
# [6] = system: soybean; assay: Test B pre/postemergence soybean; assay type: in vivo, Glycine max; conditions: Preemergence
# In short: as §1
# [7] = system: velvetleaf; assay: Test B pre/postemergence velvetleaf; assay type: in vivo, Abutilon theophrasti; conditions: Preemergence
# In short: as §1
# [8] = system: pigweed; assay: Test B pre/postemergence pigweed; assay type: in vivo, Amaranthus retroflexus
# In short: as §1
# [9] = system: wheat; assay: Test B pre/postemergence wheat; assay type: in vivo, Triticum aestivum; conditions: Preemergence
# In short: as §1
# [10] = system: rice; assay: Test B flood test rice; assay type: in vivo, Oryza sativa
# In short: (§2)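 Plants were grown to the 2-leaf stage before treatment with test chemical, then held in a greenhouse for twelve to sixteen days. Injury was visually rated against untreated controls on a 0–10 scale, where 0 is no effect and 10 is complete control.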
# [11] = system: cocklebur; assay: Test B pre/postemergence cocklebur; assay type: in vivo, Xanthium strumarium
# In short: as §1
# [12] = system: purple nutsedge; assay: Test B pre/postemergence purple nutsedge; assay type: in vivo, Cyperus rotundus; conditions: Postemergence
# In short: as §1
# [13] = system: crabgrass; assay: Test B pre/postemergence crabgrass; assay type: in vivo, Digitaria sanguinalis
# In short: as §1
# [14] = system: smallflower flatsedge; assay: Test B flood test smallflower flatsedge; assay type: in vivo, Cyperus difformis
# In short: as §2
# [15] = system: duck salad; assay: Test B flood test duck salad; assay type: in vivo, Heteranthera limosa
# In short: as §2
# [16] = system: bamyardgrass; assay: Test B flood test barnyardgrass; assay type: in vivo, Echinochloa crus-galli
# In short: as §2
# [17] = system: corn; assay: Test B pre/postemergence corn; assay type: in vivo, Zea mays
# In short: as §1
# [18] = system: wild oat; assay: Test B pre/postemergence wild oat; assay type: in vivo, Avena fatua; conditions: Preemergence
# In short: as §1
# [19] = system: giant foxtail; assay: Test B pre/postemergence giant foxtail; assay type: in vivo, Setaria faberii
# In short: as §1
# [20] = system: bedstraw; assay: Test B pre/postemergence bedstraw; assay type: in vivo, Galium aparine
# In short: as §1
# [21] = Preemergence, Rate 31 g/ha, visual rating, scale 0 to 10 (0 no effect, 10 complete control)
# [22] = Preemergence, Rate 62 g/ha, scale of 0 to 10 where 0 is no effect and 10 is complete control
# [23] = Preemergence, Rate 250 g/ha, scale of 0 to 10 where 0 is no effect and 10 is complete control
# [24] = Rate 31 g/ha, Postemergence, scale 0 to 10
# [25] = Rate 125 g/ha, Preemergence, scale of 0 to 10 where 0 is no effect and 10 is complete control
# [26] = Rate 62 g/ha, Postemergence, scale of 0 to 10 where 0 is no effect and 10 is complete control
# [27] = Rate 125 g/ha, Postemergence, scale 0 to 10
# [28] = Rate 31 g/ha, visual rating, scale 0 to 10 (0 no effect, 10 complete control)
# [29] = Rate 62 g/ha, scale of 0 to 10 where 0 is no effect and 10 is complete control
# [30] = Rate 250 g/ha, scale of 0 to 10 where 0 is no effect and 10 is complete control
# [31] = Rate 125 g/ha, scale of 0 to 10 where 0 is no effect and 10 is complete control
# [32] = Rate 62 g/ha, headed Pre-emergence (flood test species), scale 0 to 10 (0 no effect, 10 complete control)
# [33] = Rate 125 g/ha, Pre-emergence, flood test species, scale 0 to 10 where 0 is no effect and 10 is complete control
# [34] = Rate 250 g/ha, Pre-emergence, flood-test species, scale 0 to 10, 0 is no effect, 10 is complete control
# [35] = Rate 500 g/ha, Pre-emergence, flood test species, scale 0 to 10 (0 no effect, 10 complete control)
smiles,measurement,setting,value
CCC(=O)Cn1c(=O)on(C(=O)N(c2ccc(F)cc2)C(C)C)c1=O [Compound 252],Rape plant response rating,[1]; [21],0
same,Rape plant response rating,[1]; [22],0
same,Rape plant response rating,[1]; [23],3
same,Rape plant response rating,[1]; [24],0
same,Rape plant response rating,[1]; [25],0
same,"Plant response rating (0 to 10; 0 is no effect, 10 is complete control), Rape","[1]; Rate 250 g/ha, Postemergence",0
same,Morningglory plant response rating,[2]; [21],0
same,Morningglory plant response rating,[2]; [22],0
same,Morningglory plant response rating,[2]; [23],0
same,Morningglory plant response rating,[2]; [24],2
same,Morningglory plant response rating,[2]; [25],0
same,"Plant response rating (0 to 10; 0 is no effect, 10 is complete control), Morningglory","[2]; Rate 250 g/ha, Postemergence",3
same,B. signalgrass plant response rating,[3]; [21],0
same,B. signalgrass plant response rating,[3]; [22],0
same,B. signalgrass plant response rating,[3]; [23],0
same,B. signalgrass plant response rating,[3]; [24],0
same,B. signalgrass plant response rating,[3]; [26],0
same,B. signalgrass plant response rating,"[3]; Rate 125 g/ha, Postemergence, scale 0 (no effect) to 10 (complete control)",0
same,B. signalgrass plant response rating,[3]; [25],0
same,"Plant response rating (0 to 10; 0 is no effect, 10 is complete control), B. signalgrass","[3]; Rate 250 g/ha, Postemergence",0
same,Blackgrass plant response rating,[4]; [21],0
same,Blackgrass plant response rating,[4]; [22],0
same,Blackgrass plant response rating,[4]; [23],4
same,Blackgrass plant response rating,[4]; [24],0
same,Blackgrass plant response rating,[4]; [26],0
same,Blackgrass plant response rating,[4]; [27],2
same,Blackgrass plant response rating,[4]; [25],2
same,"Plant response rating (0 to 10; 0 is no effect, 10 is complete control), Blackgrass","[4]; Rate 250 g/ha, Postemergence",5
same,Sugarbeets plant response rating,[5]; [28],0
same,Sugarbeets plant response rating,[5]; [29],0
same,Sugarbeets plant response rating,[5]; [30],3
same,Sugarbeets plant response rating,[5]; [31],3
same,Soybean plant response rating,[6]; [28],0
same,Soybean plant response rating,[6]; [29],0
same,Soybean plant response rating,[6]; [30],0
same,Soybean plant response rating,[6]; [31],0
same,Velvetleaf plant response rating,[7]; [28],0
same,Velvetleaf plant response rating,[7]; [29],0
same,Velvetleaf plant response rating,[7]; [30],2
same,Velvetleaf plant response rating,[7]; [31],0
same,Redroot pigweed plant response rating,[8]; [21],0
same,Redroot pigweed plant response rating,[8]; [22],0
same,Redroot pigweed plant response rating,[8]; [23],0
same,Redroot pigweed plant response rating,[8]; [24],0
same,Redroot pigweed plant response rating,[8]; [25],0
same,"Plant response rating (0 to 10; 0 is no effect, 10 is complete control), Redroot pigweed","[8]; Rate 250 g/ha, Postemergence",0
same,Wheat plant response rating,[9]; [28],0
same,Wheat plant response rating,[9]; [29],0
same,Wheat plant response rating,[9]; [30],2
same,Wheat plant response rating,[9]; [31],0
same,Rice plant response rating,[10]; [32],0
same,Rice plant response rating,[10]; [33],0
same,Rice plant response rating,[10]; [34],0
same,Rice plant response rating,[10]; [35],0
same,Cocklebur plant response rating,[11]; [21],0
same,Cocklebur plant response rating,[11]; [22],0
same,Cocklebur plant response rating,[11]; [24],0
same,Cocklebur plant response rating,[11]; [26],0
same,Cocklebur plant response rating,[11]; [27],0
same,Cocklebur plant response rating,[11]; [25],0
same,"Plant response rating (0 to 10; 0 is no effect, 10 is complete control), Cocklebur","[11]; Rate 250 g/ha, Postemergence",0
same,Nutsedge plant response rating,"[12]; Rate 31 g/ha, scale 0 to 10",0
same,"Plant response rating (0 to 10; 0 is no effect, 10 is complete control), Nutsedge",[12]; Rate 250 g/ha,0
same,Crabgrass plant response rating,[13]; [21],0
same,Crabgrass plant response rating,[13]; [22],0
same,Crabgrass plant response rating,[13]; [23],4
same,Crabgrass plant response rating,[13]; [24],0
same,Crabgrass plant response rating,[13]; [25],2
same,"Plant response rating (0 to 10; 0 is no effect, 10 is complete control), Crabgrass","[13]; Rate 250 g/ha, Postemergence",6
same,S. Flatsedge plant response rating,[14]; [32],0
same,S. Flatsedge plant response rating,[14]; [33],0
same,S. Flatsedge plant response rating,[14]; [34],0
same,S. Flatsedge plant response rating,[14]; [35],0
same,Ducksalad plant response rating,[15]; [32],0
same,Ducksalad plant response rating,[15]; [33],0
same,Ducksalad plant response rating,[15]; [34],0
same,Ducksalad plant response rating,[15]; [35],0
same,Barnyardgrass plant response rating,[16]; [32],0
same,Barnyardgrass plant response rating,[16]; [33],0
same,Barnyardgrass plant response rating,[16]; [34],0
same,Barnyardgrass plant response rating,[16]; [35],0
same,Corn plant response rating,[17]; [21],0
same,Corn plant response rating,[17]; [22],0
same,Corn plant response rating,[17]; [23],0
same,Corn plant response rating,[17]; [24],0
same,Corn plant response rating,[17]; [26],0
same,Corn plant response rating,[17]; [27],0
same,Corn plant response rating,[17]; [25],0
same,"Plant response rating (0 to 10; 0 is no effect, 10 is complete control), Corn","[17]; Rate 250 g/ha, Postemergence",0
same,Wild oats plant response rating,[18]; [28],0
same,Wild oats plant response rating,[18]; [29],0
same,Wild oats plant response rating,[18]; [30],3
same,Wild oats plant response rating,[18]; [31],0
same,Giant foxtail plant response rating,[19]; [21],3
same,Giant foxtail plant response rating,[19]; [22],3
same,Giant foxtail plant response rating,[19]; [23],10
same,Giant foxtail plant response rating,[19]; [24],0
same,Giant foxtail plant response rating,[19]; [25],9
same,"Plant response rating (0 to 10; 0 is no effect, 10 is complete control), Giant foxtail","[19]; Rate 250 g/ha, Postemergence",4
same,Bedstraw plant response rating,[20]; [21],0
same,Bedstraw plant response rating,[20]; [22],0
same,Bedstraw plant response rating,[20]; [23],0
same,Bedstraw plant response rating,[20]; [24],0
same,Bedstraw plant response rating,[20]; [26],0
same,Bedstraw plant response rating,[20]; [27],0
same,Bedstraw plant response rating,[20]; [25],0
same,"Plant response rating (0 to 10; 0 is no effect, 10 is complete control), Bedstraw","[20]; Rate 250 g/ha, Postemergence",0
